The text below walks through data of publication PMC10304174, “Development of Zeise’s Salt Derivatives Bearing Substituted Acetylsalicylic Acid Substructures as Cytotoxic COX Inhibitors” (Pharmaceutics, 2023).

The term IC50 denotes the concentration that inhibits the measured activity by half. A high value points to weaker potency in that assay.

Data set [1] in a line: Complex stability by capillary electrophoresis (decrease of initial complex over time). Format: physicochemical. To be noted: MeOH/water (50/50, v/v), 1 mM, 37 °C, CE. As for the experimental part:
The analysis was performed as previously described. A 50 mM sodium tetraborate solution (pH = 9.3, adjusted with 1 M NaOH), served as background electrolyte (BGE). Washing of novel capillaries consecutively with 1 M NaOH (45 min), water (45 min), and BGE (45 min) was performed. The hydrodynamic injection mode was utilized to introduce the samples into the capillary (50 mbar for 2 s). The capillary was kept at 25 °C, and the autosampler was thermostatted at 37 °C with an external water bath. For separation, the voltage was set to 20 kV, and the detection was carried out at the wavelength of 230 nm. Before each measurement, flushing of the capillary with 0.1 M NaOH (3 min), water (3 min), and BGE (5 min) took place. The samples were dissolved in methanol (MeOH) and further diluted in equal parts by volume with water to give a final concentration of 1 mM. Triple determinations were performed, and the half-lives (τ½) are presented as mean ± SD of ≥3 independent experiments. Samples, washing solutions, and buffers were filtered through a membrane with 0.22 µm porosity and degassed by ultrasonication before use. To simplify the reaction dynamics from a possible second-order to pseudo-first-order, one of two reactants must be present in great excess (>10 to 25-fold). If this condition is fulfilled, logarithmic plotting of the gradual decrease in the other reactant’s concentration (or increase in the concentration of a product, respectively) against the time yields a straight line, and half-lives can be calculated.
An already-established method was used to study the stability of the X-ASA-Prop-PtCl3 and X-ASA-But-PtCl3 complexes. The degradation products were separated by capillary electrophoresis using a fused-silica capillary ([…] × 75 µm, effective length: 56 cm, capillary temperature: 25 °C) and a 50 mM tetraborate buffer (pH = 9.3) as BGE. For separation, the voltage was set to 20 kV and the compounds were detected at 230 nm. Benzoic acid was used as an internal standard. Exemplary electropherograms of each complex can be found in the Supplementary Material (Figures S1–S24).
The complexes (1 mM) were dissolved in MeOH or MeOH/water (50/50, v/v) and stored at 37 °C. The decrease in the initial amount of complex was monitored time-dependently by CE, and the half-life (τ½) was calculated (Table 2).

The target of data set [2] is T1, COX-1 (Ovis aries, UniProt P05979).
T1 construct: purchased Cayman Chemicals
T1 sequence (P05979 25-600): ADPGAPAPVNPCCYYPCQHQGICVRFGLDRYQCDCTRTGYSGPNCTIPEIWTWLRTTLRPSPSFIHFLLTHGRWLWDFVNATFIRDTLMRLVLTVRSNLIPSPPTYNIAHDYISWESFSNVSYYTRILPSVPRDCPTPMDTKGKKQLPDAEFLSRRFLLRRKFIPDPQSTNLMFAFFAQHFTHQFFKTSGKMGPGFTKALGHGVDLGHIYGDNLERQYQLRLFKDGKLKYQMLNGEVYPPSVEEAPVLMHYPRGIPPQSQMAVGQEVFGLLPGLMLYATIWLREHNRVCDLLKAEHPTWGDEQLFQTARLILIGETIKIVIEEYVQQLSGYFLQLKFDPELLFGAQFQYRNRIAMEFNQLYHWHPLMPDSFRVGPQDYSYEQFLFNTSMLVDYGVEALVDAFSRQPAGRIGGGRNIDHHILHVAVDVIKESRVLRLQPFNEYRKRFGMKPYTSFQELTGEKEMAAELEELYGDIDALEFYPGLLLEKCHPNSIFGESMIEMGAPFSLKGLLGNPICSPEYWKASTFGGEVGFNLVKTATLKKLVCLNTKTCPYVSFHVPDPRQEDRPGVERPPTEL
Kind of data set: COX Inhibitor Screening Assay (EIA) on isolated COX-1 isoenzyme. The note with it: for Inhibition of COX-1: 1 µM, incubation 10 min. Format: biochemical, ovine. As for the experimental part:
(§1) The incubation of the respective complexes with the isoenzymes was exactly 10 min. The values of COX inhibition were calculated as the mean of duplicates and shown as the mean ± SD of ≥2 independent experiments.

For data set [3], the target named is T2, COX-2 (Homo sapiens, UniProt P35354).
T2 construct: purchased Cayman Chemicals
T2 sequence (P35354 18-604): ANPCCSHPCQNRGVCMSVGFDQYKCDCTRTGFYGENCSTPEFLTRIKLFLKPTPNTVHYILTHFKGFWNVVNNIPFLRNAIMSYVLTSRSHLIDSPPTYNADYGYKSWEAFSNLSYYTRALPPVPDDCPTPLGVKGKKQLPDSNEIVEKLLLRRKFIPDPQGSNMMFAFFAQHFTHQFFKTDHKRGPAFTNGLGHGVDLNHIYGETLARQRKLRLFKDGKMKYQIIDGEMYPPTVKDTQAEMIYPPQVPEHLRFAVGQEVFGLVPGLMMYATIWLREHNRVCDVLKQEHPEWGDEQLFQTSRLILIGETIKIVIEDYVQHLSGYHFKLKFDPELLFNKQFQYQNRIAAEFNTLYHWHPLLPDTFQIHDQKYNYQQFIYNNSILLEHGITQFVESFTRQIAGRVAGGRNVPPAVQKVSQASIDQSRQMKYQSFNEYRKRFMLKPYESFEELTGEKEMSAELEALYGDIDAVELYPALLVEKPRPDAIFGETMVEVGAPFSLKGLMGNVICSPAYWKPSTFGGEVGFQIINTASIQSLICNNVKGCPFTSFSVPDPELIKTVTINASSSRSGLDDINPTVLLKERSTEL
Kind of data set: COX Inhibitor Screening Assay (EIA) on isolated COX-2 isoenzyme. It is filed as biochemical. The note with it: for Inhibition of COX-2: 1 µM, incubation 10 min. As for the experimental part: as §1

For data set [4], the system named is HT-29 cells. Kind of data set: Crystal violet assay, antiproliferative effects in HT-29 cells. Format: cell-based. The note with it: HT-29 (COX-1/2-positive), 72 h. The procedure: (§2) In order to investigate the cytotoxic effects in MCF-7 and HT-29 cells, an already published crystal violet assay was used. The cells (HT-29: 3 × 10^3 cells per well in 100 µL of medium; MCF-7: 2 × 10^3 cells per well in 100 µL of medium) were seeded in their exponential growth phase in completed DMEM into 96-well microtiter plates in quadruples. […] Cells were then fixed with a solution of 1% (v/v) glutaric dialdehyde in PBS. In order to determine the cell biomass, the chromatin of the attached cells was stained with crystal violet, and the bound dye was extracted with EtOH (70%). The absorbance was measured at 590 nm. Mean values ± SD of ≥2 independent experiments were calculated, and the activity of the complexes was expressed as the cell mass of the vehicle-treated control, which was set to 100%.
(§3) The compounds were investigated regarding their cytotoxicity (in vitro) employing an already published crystal violet assay. It is based on the quantification of the cell biomass of living cells by staining the chromatin. In order to evaluate the possible influence of COX inhibition on cell growth, Zeise’s salt derivatives were investigated comparatively in HT-29 and MCF-7 cell lines.

Data set [5] has as its system MCF-7 cells. Kind of data set: Crystal violet assay, antiproliferative effects in MCF-7 cells. To be noted: MCF-7 (COX-negative), 72 h. It is filed as cell-based. As for the experimental part: as §2, §3
Data set [6] concerns PGE2 synthesis in HT-29 cells. Kind of data set: Inhibition of the PGE2 synthesis in HT-29 cells (PGE2 EIA). Format: cell-based. The note with it: 10 µM, 24 h at 37 °C, then 50 µM arachidonic acid 1 h. As for the experimental part:
Exponentially growing HT-29 cells were seeded into 24-well plates at a concentration of 5 × 10^4 cells in 500 µL of cell culture medium per well. […] In the next step, the substrate arachidonic acid (Sigma Aldrich, St. Louis, MO, USA) at a concentration of 50 µM was added. After 1 h, the COX-catalyzed PGE2 production was stopped by removing the supernatant from the cells, which was analyzed by EIA (Prostaglandin E2 Kit—Monoclonal, Cayman Chemicals, Ann Arbor, MI, USA) according to the manufacturer’s protocol.
HT-29 cells express both isoenzymes at high levels, allowing COX-1/2 interaction to be studied using an antibody-based PGE2 assay, which quantifies the PGE2 released by the cells into the cell culture medium. All Zeise’s salt derivatives were tested at a concentration of 10 µM (Figure 4).

Data set [7] relates to HT-29 cells. Set-up: method as in PMID 29848978. The note with it: COX-1/2-positive HT-29 colon carcinoma cells; cited from earlier work.
Data set [8] relates to MCF-7 cells. Also on record: method as in PMID 29848978. To be noted: COX-negative MCF-7 breast cancer cells; cited from earlier work.

Take `CC(=O)Oc1c(Cl)cccc1C(=O)OC[CH]1[CH2][Pt-]1([Cl])([Cl])[Cl].[K+]` (stereo not drawn) [3-Cl-ASA-Prop-PtCl3, Potassium trichlorido[η^2-(prop-2-en-1-yl)-2-acetoxy-3-chlorobenzoate]platinate(II)]: in data set [1], the “Half-life (τ½)” value was 31.4 ± 1.7 min. The “Inhibition of COX-1” value in data set [2] is given as 51.7%. Further, in data set [3], the “Inhibition of COX-2” value turned out to be 58.8%. Also, the IC50 in data set [4] is 89.7 ± 25.7 µM; in data set [5], 56.3 ± 5.8 µM.
As to `CC(=O)Oc1cc(C)ccc1C(=O)OC[CH]1[CH2][Pt-]1([Cl])([Cl])[Cl].[K+]` (stereo not drawn) [4-CH3-ASA-Prop-PtCl3, Potassium trichlorido[η^2-(prop-2-en-1-yl)-2-acetoxy-4-methylbenzoate]platinate(II)], the “Half-life (τ½)” value in data set [1] came to 40.4 ± 1.1 min. For the same compound, in data set [6], the “Inhibition of PGE2 synthesis” value is 88.4%. Besides, the IC50 in data set [4] came to 24.2 ± 2.4 µM; in data set [5], 62.9 ± 1.6 µM.
With `CC(=O)Oc1cc(Cl)ccc1C(=O)OCC[CH]1[CH2][Pt-]1([Cl])([Cl])[Cl].[K+]` (stereo not drawn) [4-Cl-ASA-But-PtCl3, Potassium trichlorido[η^2-(but-3-en-1-yl)-2-acetoxy-4-chlorobenzoate]platinate(II)], the “Half-life (τ½)” value in data set [1] came out at 2370 ± 144 min. Also, the “Inhibition of COX-1” value in data set [2] is 47.9%. The “Inhibition of COX-2” value in data set [3] is given as 40.0%. The results for the IC50 in data set [4] and in data set [5] were 35.2 ± 9.3 µM and 31.7 ± 8.7 µM, respectively.
With `CC(=O)Oc1cc(Cl)ccc1C(=O)OC[CH]1[CH2][Pt-]1([Cl])([Cl])[Cl].[K+]` (stereo not drawn) [4-Cl-ASA-Prop-PtCl3, Potassium trichlorido[η^2-(prop-2-en-1-yl)-2-acetoxy-4-chlorobenzoate]platinate(II)], in data set [1], the “Half-life (τ½)” value worked out at 32.7 ± 1.8 min. In data set [3] (from inhibition at 1 µM, COX-2 over COX-1), this compound yielded a COX-2 selectivity of 1.5 fold. Also, the IC50 in data set [4] was 89.8 ± 23.9 µM; in data set [5], 70.7 ± 3.6 µM.
With `CC(=O)Oc1cc(F)ccc1C(=O)OC[CH]1[CH2][Pt-]1([Cl])([Cl])[Cl].[K+]` (stereo not drawn) [4-F-ASA-Prop-PtCl3, Potassium trichlorido[η^2-(prop-2-en-1-yl)-2-acetoxy-4-fluorobenzoate]platinate(II)], in data set [1], the “Half-life (τ½)” value came to 32.1 ± 1.1 min. Further, the “Inhibition of COX-2” value in data set [3] was determined as 17.5%. Also, the concentration for half-maximal inhibition (IC50) in data set [4] turned out to be 107 ± 3.1 µM; in data set [5], 150 ± 33.6 µM.
For `CC(=O)Oc1ccc(C)cc1C(=O)OCC[CH]1[CH2][Pt-]1([Cl])([Cl])[Cl].[K+]` (stereo not drawn) [5-CH3-ASA-But-PtCl3, Potassium trichlorido[η^2-(but-3-en-1-yl)-2-acetoxy-5-methylbenzoate]platinate(II)], the “Half-life (τ½)” value in data set [1] came to 3140 ± 258 min. The “Inhibition of COX-1” value in data set [2] is recorded as 60.4%. Besides, in data set [3], the “Inhibition of COX-2” value is reported as 45.0%. Also, the IC50 in data set [4] turned out to be 16.2 ± 2.5 µM; in data set [5], 32.5 ± 4.4 µM.
On to `CC(=O)Oc1ccc(C)cc1C(=O)OC[CH]1[CH2][Pt-]1([Cl])([Cl])[Cl].[K+]` (stereo not drawn) [5-CH3-ASA-Prop-PtCl3, Potassium trichlorido[η^2-(prop-2-en-1-yl)-2-acetoxy-5-methylbenzoate]platinate(II)], for which, in data set [1], the “Half-life (τ½)” value was 36.7 ± 1.1 min. For the same compound, the “Inhibition of PGE2 synthesis” value in data set [6] stood at 82.4%. Moreover, the IC50 in data set [4] came to 21.9 ± 4.6 µM; in data set [5] it was 70.2 ± 2.8 µM.
For the compound `CC(=O)Oc1ccc(Cl)cc1C(=O)OC[CH]1[CH2][Pt-]1([Cl])([Cl])[Cl].[K+]` (stereo not drawn) [5-Cl-ASA-Prop-PtCl3, Potassium trichlorido[η^2-(prop-2-en-1-yl)-2-acetoxy-5-chlorobenzoate]platinate(II)], the “Half-life (τ½)” value in data set [1] is given as 35.2 ± 0.9 min. For the same compound, in data set [2] (from inhibition at 1 µM, COX-1 over COX-2), the COX-1 selectivity is given as 1.7 fold. In addition, the “Inhibition of PGE2 synthesis” value in data set [6] is 84.0%. In addition, the figures for the IC50 in data set [4] and in data set [5] were 53.4 ± 0.7 µM and 52.8 ± 9.2 µM, respectively.
Regarding `CC(=O)Oc1ccccc1C(=O)OCC[CH]1[CH2][Pt-]1([Cl])([Cl])[Cl].[K+]` (stereo not drawn) [ASA-But-PtCl3], in data set [1], the “Half-life (τ½)” value worked out at 4180 min. Also, the “Growth inhibition in HT-29 cells” value in data set [7] is given as “low growth inhibitory potential”. Besides, the “Growth inhibition in MCF-7 cells” value in data set [8] was “nearly inactive”.
With `CC(=O)Oc1ccccc1C(=O)OC[CH]1[CH2][Pt-]1([Cl])([Cl])[Cl].[K+]` (stereo not drawn) [ASA-Prop-PtCl3], the “Half-life (τ½)” value in data set [1] is listed as 35.7 min. For the same compound, in data set [7], the “Growth inhibition in HT-29 cells” value is recorded as “low growth inhibitory potential”. Moreover, the “Growth inhibition in MCF-7 cells” value in data set [8] is “nearly inactive”.
